{
  "source": "paper PMC6374164",
  "about": "(Organic & biomolecular chemistry, 2019)",
  "key": {"[1]": {"assay": "Aqueous solubility by solution turbidity", "type": "physicochemical"}, "TRKB": {"tested_on": "TRKB", "conditions": "tested at 1 μM; cited from earlier work"}, "BPTF bromodomain": {"molecular_target": "BPTF bromodomain (Homo sapiens, UniProt Q12830)", "assay": "PrOF NMR binding to 5FW-labeled BPTF bromodomain", "conditions": "5FW BPTF bromodomain, 19F resonance of W2824"}, "breast epithelial cells": {"tested_on": "breast epithelial cells", "conditions": "cited from earlier work"}, "BPTF": {"tested_on": "BPTF", "conditions": "cited from earlier work"}, "CDKL2": {"molecular_target": "T1, CDKL2 (Homo sapiens, UniProt Q92772)", "T1 sequence (Q92772 1-493)": "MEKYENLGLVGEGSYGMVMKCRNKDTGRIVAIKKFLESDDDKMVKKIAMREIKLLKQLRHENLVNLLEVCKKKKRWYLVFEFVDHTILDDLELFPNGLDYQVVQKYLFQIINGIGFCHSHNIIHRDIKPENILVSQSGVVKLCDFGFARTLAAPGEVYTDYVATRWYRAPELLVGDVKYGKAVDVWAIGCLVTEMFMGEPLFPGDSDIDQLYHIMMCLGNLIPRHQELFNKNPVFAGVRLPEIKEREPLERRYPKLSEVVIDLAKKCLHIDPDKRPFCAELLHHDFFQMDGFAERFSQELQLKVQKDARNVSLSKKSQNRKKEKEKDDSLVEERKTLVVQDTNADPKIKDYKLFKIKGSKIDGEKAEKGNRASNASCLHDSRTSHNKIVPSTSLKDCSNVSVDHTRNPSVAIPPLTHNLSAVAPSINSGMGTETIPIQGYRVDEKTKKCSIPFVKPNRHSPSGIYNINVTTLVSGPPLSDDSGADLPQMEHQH", "conditions": "tested at 1 μM; cited from earlier work"}, "p38-δ": {"tested_on": "p38-δ", "conditions": "tested at 1 μM; cited from earlier work"}, "TRKC": {"molecular_target": "TRKC (Homo sapiens, UniProt Q16288)", "sequence (Q16288 32-839)": "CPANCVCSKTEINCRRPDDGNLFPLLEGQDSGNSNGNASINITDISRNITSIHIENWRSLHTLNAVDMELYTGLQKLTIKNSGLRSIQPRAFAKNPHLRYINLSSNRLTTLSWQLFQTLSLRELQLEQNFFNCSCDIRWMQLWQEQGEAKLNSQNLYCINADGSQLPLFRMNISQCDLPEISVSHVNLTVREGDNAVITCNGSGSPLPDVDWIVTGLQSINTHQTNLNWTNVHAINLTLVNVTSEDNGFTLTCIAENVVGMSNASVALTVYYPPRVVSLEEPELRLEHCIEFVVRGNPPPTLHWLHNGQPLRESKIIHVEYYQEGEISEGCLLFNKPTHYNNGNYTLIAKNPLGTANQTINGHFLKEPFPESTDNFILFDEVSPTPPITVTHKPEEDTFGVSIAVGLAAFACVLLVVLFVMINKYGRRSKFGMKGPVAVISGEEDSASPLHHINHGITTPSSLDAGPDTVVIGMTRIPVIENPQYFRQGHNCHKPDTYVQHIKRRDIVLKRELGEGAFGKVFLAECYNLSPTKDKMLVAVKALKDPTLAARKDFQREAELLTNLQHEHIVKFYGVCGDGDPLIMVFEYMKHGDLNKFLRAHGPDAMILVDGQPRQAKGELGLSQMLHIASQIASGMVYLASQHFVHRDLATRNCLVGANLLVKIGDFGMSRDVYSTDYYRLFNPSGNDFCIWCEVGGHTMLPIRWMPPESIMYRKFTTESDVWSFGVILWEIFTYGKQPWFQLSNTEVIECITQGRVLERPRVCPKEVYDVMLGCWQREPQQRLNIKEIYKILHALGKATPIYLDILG", "conditions": "tested at 1 μM; cited from earlier work"}, "HPK1": {"tested_on": "HPK1", "conditions": "tested at 1 μM; cited from earlier work"}, "parasite": {"tested_on": "parasite", "conditions": "cited from earlier work"}, "CDK11": {"tested_on": "CDK11", "conditions": "tested at 1 μM; cited from earlier work"}},
  "data": [
    {"smiles": "COC(=O)c1cccc(NC(=O)NC2CCN(c3ccnc(Nc4ccc(F)cc4)n3)C2)c1", "note": "(racemic) [rac-1]", "values": [
      {"measurement": "solubility (concentration above which solution turbidity increases)", "setting": "[1]", "result": "~ 100 μM"},
      {"measurement": "inhibition of TRKB", "setting": "TRKB", "result": "51–68%"},
      {"measurement": "PrOF NMR binding behaviour of the 5FW BPTF resonance", "setting": "BPTF bromodomain", "result": "significant broadening of the fluorine resonance"},
      {"measurement": "effects in breast epithelial cells", "setting": "breast epithelial cells", "result": "decreased c-MYC regulated genes, c-MYC chromatin occupancy, and led to G1 cell cycle arrest"},
      {"measurement": "transcription in a BPTF-specific reporter assay", "setting": "BPTF", "result": "reducing transcription"},
      {"measurement": "inhibition of CDKL2", "setting": "CDKL2", "result": 82, "unit": "%"},
      {"measurement": "inhibition of p38-δ", "setting": "p38-δ", "result": "51–68%"},
      {"measurement": "inhibition of TRKC", "setting": "TRKC", "result": 82, "unit": "%"},
      {"measurement": "inhibition of HPK1", "setting": "HPK1", "result": "51–68%"},
      {"measurement": "antimalarial activity", "setting": "parasite", "result": "has shown antimalarial activity"},
      {"measurement": "inhibition of CDK11", "setting": "CDK11", "result": "51–68%"}
    ]}
  ]
}
